Data on one compound can be found in patent EP2208498B1, “PHARMACEUTICAL COMPOSITION COMBINING VARIOUS VENOTONIC AND VASOPROTECTIVE AGENTS FOR THE TREATMENT OF CHRONIC VENOUS INSUFFICIENCY” (priority 2007, dated 2009).

For data set [1], the system named is patients with chronic venous insufficiency. The method, then:
A randomized, comparative clinical study was carried out wherein 150 patients with chronic venous insufficiency were included.
All patients were firstly treated with conventional therapy, combining compression with pharmacological treatment.
A full clinical history with physical examination was prepared for the patients, being assessed with Echo Doppler and CEAP classification, see Table 1.

The conditions of data set [2]: cited from earlier work.
The subject of another data set is haemorrhoidal crises. The note with it: 25 patients 1 500 mg per day calcium dobesilate; 26 patients 3000 mg per day flavonoid fraction of diosmine; cited from earlier work.
Setting [3] is: Final symptomatology data after two months of treatment, n=50 per group, initial 100%.

As to `O=S(=O)(O)c1cc(O)ccc1O` [calcium dobesilate, Calcium dobesilate], the Itch in data set [1] (Final symptomatology data after two months of treatment, n=50 per group, initial 80-88%) came out at 0. In data set [1] (setting [3]), this compound gave a Cramps of 0, a Heaviness of 0 and a Limb pain of 0. The Doppler in data set [1] (Final symptomatology data after two months of treatment, n=50 per group, initial >9) is <9. In data set [1] (human, in vivo), the “reported side effects such as: head ache and tiredness sensation” value is reported as 14 patients. In addition, in data set [2] (after oral administration), the plasma peak is 8 µg/mL and the “time of plasma peak” value is given as “around 6 hours”. The Plasma half-life entry in data set [2] (in vivo) is listed as “about 5 hours”. Moreover, the “administered dose removed in feces” value in data set [2] (remaining dose) is 50%. For the same compound, the “administered dose removed in urine” value in data set [2] (within the first 24 hours) is on record as 50%. For the same compound, the “improvement in haemorrhoidal crises (in words)” value in the data set with haemorrhoidal crises is “significant improvement”.
